Key:
[1] = test system: EPO-induced JAK2 signal pathway; test: EPO-induced proliferation of UT-7 cells (JAK2 signal); type: cell-based, human; details: Homo sapiens, UT7; UT-7 cell proliferation, EPO 10 ng/mL, 72 hours; read-out: Inhibition activity IC50 on EPO-induced JAK2 signal pathway
Protocol: The cytokine EPO, i.e. erythropoietin, can promote the proliferation and division of erythroid progenitor cells, and the signal pathway induced by EPO coupling with its receptor is mediated by JAK2-STAT5.
Human promegakaryocytic leukemia cell line UT-7 was commercially available from Cell Resource Center, Institute of Basic Medicine, Chinese Academy of Medical Sciences. The culture medium was RPIM1640 containing 10% FBS, and EPO was added for a final concentration of 10 ng/mL.
The inhibition rate of the tested compound on EPO-induced cell proliferation was calculated using Microsoft Excel.
UT-7 cell line was inoculated in 96-well plate with flat bottom at 15000 cells per well, each well was added with 10 ng/mL of human recombinant EPO (Human EPO PEPROTECH 100-64-10UG), along with tested compound respectively for a final concentration of 0, 100, 1000 or 10000 nM. After culture at 37° C. and 5% CO2 for 72 hours, alamarBlue™ Cell Viability Reagent was added to each well following the instructions. After incubation at 37° C. for color reaction, the fluorescence value at Ex530/Em590 was detected using Tecan Spark™ 10M multimode microplate reader.
(§1) The well in which neither compound nor cytokine was added was designated as 00 control well, and the fluorescence value in the wells in which the final concentration of compound was 0 was designated as 100 control. The inhibition activity MC50 ofthe tested compound on JAK2 could be calculated from the inhibition rate ofthe tested compound on EPO-induced cell proliferation at different doses.

[2] = test system: IL-2-induced JAK1/JAK3 signal pathway; test: IL-2-induced proliferation of KHYG-1 cells (JAK1/JAK3 signal); type: cell-based, human; details: Homo sapiens; KHYG-1 cell proliferation, IL-2 10 ng/mL, 72 hours; read-out: Inhibition activity IC50 on IL-2-induced JAK1/JAK3 signal pathway
Source text: The main physiological function of cytokine IL-2 is to stimulate and maintain the proliferation and differentiation of T cells. Generally, IL-2 dependent T cells cannot survive in in-vitro culture for a long time, but the addition of IL-2 can make them continue to proliferate. The signal pathway induced by IL-2 coupling with its receptor is mediated by JAK1/JAK3-STAT5, so the inhibitor of JAK1 and/or JAK3 can inhibit the proliferation of IL-2 dependent cells.
Human natural killer cell lymphoma cell line KHYG-1 was commercially available from Health Science Research Resources Bank (HSRRB), and relevant culture conditions referred to those from HSRRB.
The inhibition rate of the tested compound on IL-2-induced cell proliferation was calculated using Microsoft Excel.
After culture at 37° C. and 5% CO2 for 72 hours, alamarBlue™ Cell Viability Reagent was added to each well following the instructions.
as §1, with “0%” for “00”, “100%” for “100”, “[…] of the” for “MC50 ofthe”, “JAK1/JAK3” for “JAK2”, “of the” for “ofthe”, “IL-2-induced” for “EPO-induced”

SMILES	IC50 [1] [µM]	IC50 [2] [µM]
CONC(=O)c1cnc(NC(=O)C2CC2)cc1Nc1ccc(C)nc1N(C)S(C)(=O)=O [Example 59, 6-(cyclopropylcarboxamido)-N-methoxy-4-((6-methyl-2-(N-methylmethanesulfonamido)pyridin-3-yl)amino)nicotinamide]	> 10	> 10
CONC(=O)c1cnc(NC(=O)C2CC2)cc1Nc1ccccc1S(C)(=O)=O [Example 89]	> 10	> 10
CONC(=O)c1c(Nc2ccc(C3CC3)cc2N(C)S(C)(=O)=O)cc(Nc2cccc(F)n2)nc1C [Example 67, 4-((4-cyclopropyl-2-(N-methylmethanesulfonamido)phenyl)amino)-6-((6-fluoropyridin-2-yl)amino)-N-methoxy-2-methyl nicotinamide]	> 10	> 10
CONC(=O)c1cnc(Nc2ccc(F)cn2)cc1Nc1cccc(-c2cnn(C)c2)c1C#N [Example 49, 4-((2-cyano-3-(1-methyl-1H-pyrazol-4-yl)phenyl)amino)-6-((5-fluoropyridin-2-yl)amino)-N-methoxy nicotinamide]	> 10	> 10
CCONC(=O)c1nnc(Nc2cc(C)nc(C)n2)cc1Nc1cccc(-c2ncc(C)cn2)c1OC [Example 276, 6-((2,6-dimethylpyrimidin-4-yl)amino)-N-ethoxy-4-((2-methoxy-3-(5-methylpyrimidin-2-yl)phenyl)amino)pyridazine-3-carboxamide]	> 10	> 10
CCONC(=O)c1cnc(Nc2ccnn2C)cc1Nc1cc(F)c(C2CC2)cc1N(C)S(C)(=O)=O [Example 168, 4-((4-cyclopropyl-5-fluoro-2-(N-methylmethanesulfonamido)phenyl)amino)-N-ethoxy-6-((1-methyl-1H-pyrazol-5-yl)amino)nicotinamide]	> 10	> 10
CONC(=O)c1cnc(NC(=O)C2CC2)cc1Nc1cccc(-c2ccn(C)n2)c1OCC(F)(F)F [Example 50, 6-(cyclopropylcarboxamido)-N-methoxy-4-((3-(1-methyl-1H-pyrazol-3-yl)-2-(2,2,2-trifluoroethoxy)phenyl)amino)nicotinamide]	> 10	> 10
CONC(=O)c1cnc(Nc2cccnc2OC)cc1Nc1ccc(OC)nc1N(C)S(C)(=O)=O [Example 9, N-methoxy-4-((6-methoxy-2-(N-methylmethanesulfonamido)pyridin-3-yl)amino)-6-((2-methoxypyridin-3-yl)amino)nicotinamide]	> 10	> 10
CCONC(=O)c1cnc(Nc2ncc(F)cc2F)cc1Nc1cc(F)c(C(C)C)cc1N(C)S(C)(=O)=O [Example 228, 6-((3,5-difluoropyridin-2-yl)amino)-N-ethoxy-4-((5-fluoro-4-isopropyl-2-(N-methylmethanesulfonamido)phenyl)amino)nicotinamide]	> 10	> 10
CCONC(=O)c1cnc(Nc2cc(C)c(F)cn2)cc1Nc1cc(F)c(C2CC2)cc1N(C)S(C)(=O)=O [Example 99, 4-((4-cyclopropyl-5-fluoro-2-(N-methylmethanesulfonamido)phenyl)amino)-N-ethoxy-6-((5-fluoro-4-methylpyridin-2-yl)amino)nicotinamide]	> 10	> 10
CONC(=O)c1cnc(NC(=O)C2CC2)cc1Nc1ccc(OC)nc1N(C)S(C)(=O)=O [Example 7, 6-(cyclopropylcarboxamido)-N-methoxy-4-((6-methoxy-2-(N-methylmethanesulfonamido)pyridin-3-yl)amino)nicotinamide]	> 10	> 10
CONC(=O)c1cnc(NC(=O)C2CC2)cc1Nc1cccc(-c2cnn(C)c2)c1C#N [Example 48, 4-((2-cyano-3-(1-methyl-1H-pyrazol-4-yl)phenyl)amino)-6-(cyclopropylcarboxamido)-N-methoxy nicotinamide]	> 10	> 10
CCONC(=O)c1cnc(NC(=O)C2CC2)cc1Nc1cc(C)c(C2CC2)cc1N(C)S(C)(=O)=O [Example 120, 6-(cyclopropylcarboxamido)-4-((4-cyclopropyl-5-methyl-2-(N-methylmethanesulfonamido)phenyl)amino)-N-ethoxy nicotinamide]	> 10	> 10
CONC(=O)c1cnc(NC(=O)C2CC2)cc1Nc1cccnc1N(C)S(C)(=O)=O [Example 35, 6-(cyclopropylcarboxamido)-N-methoxy-4-((2-(N-methylmethanesulfonamido)pyridin-3-yl)amino)nicotinamide]	> 10	> 10
CN(c1ccccc1Nc1cc(NC(=O)C2CC2)ncc1C(=O)NOC(C)(C)C)S(C)(=O)=O [Example 91, N-(t-butoxy)-6-(cyclopropylcarboxamido)-4-((2-(N-methylmethanesulfonamido)phenyl)amino)nicotinamide]	> 10	> 10
CONC(=O)c1cnc(NC(=O)C2CC2)cc1Nc1cccc(F)c1N(C)S(C)(=O)=O [Example 32, 6-(cyclopropylcarboxamido)-4-((3-fluoro-2-(N-methylmethanesulfonamido)phenyl)amino)-N-methoxy nicotinamide]	> 10	> 10
CONC(=O)c1cnc(Nc2cccc(F)n2)cc1Nc1cccc(-c2ccn(C)n2)c1OC [Example 30, 6-((6-fluoropyridin-2-yl)amino)-N-methoxy-4-((2-methoxy-3-(1-methyl-1H-pyrazol-3-yl)phenyl)amino)nicotinamide]	> 10	> 10
CONC(=O)c1cnc(Nc2ccc(F)cc2)cc1Nc1ccc(C2CC2)cc1N(C)S(C)(=O)=O [Example 15, 4-((4-cyclopropyl-2-(N-methylmethanesulfonamido)phenyl)amino)-6-((4-fluorophenyl)amino)-N-methoxy nicotinamide]	> 10	> 10
CCONC(=O)c1cnc(Nc2cc(C)nc(C)n2)cc1Nc1cc(Cl)c(C2CC2)cc1N(C)S(C)(=O)=O [Example 149]	> 10	> 10
CONC(=O)c1cnc(NC(=O)C2CC2)cc1Nc1cccc(-c2cnn(C)c2)c1N(C)S(C)(=O)=O [Example 87, 6-(cyclopropylcarboxamido)-N-methoxy-4-((3-(1-methyl-1H-pyrazol-4-yl)-2-(N-methylmethanesulfonamido)phenyl)amino)nicotinamide]	> 10	> 10
CCONC(=O)c1cnc(Nc2ccccn2)cc1Nc1cc(F)c(C2CC2)cc1N(C)S(C)(=O)=O [Example 96, 4-((4-cyclopropyl-5-fluoro-2-(N-methylmethanesulfonamido)phenyl)amino)-N-ethoxy-6-(pyridin-2-ylamino)nicotinamide]	> 10	> 10
CCONC(=O)c1cnc(Nc2ccc(CO)cn2)cc1Nc1ccc(C2CC2)cc1N(C)S(C)(=O)=O [Example 122, 4-((4-cyclopropyl-2-(N-methylmethanesulfonamido)phenyl)amino)-N-ethoxy-6-((5-(hydroxymethyl)pyridin-2-yl)amino)nicotinamide]	> 10	> 10
CONC(=O)c1cnc(NC(=O)C2CC2)cc1Nc1ccc(OC)cc1N(C)S(C)(=O)=O [Example 6, 6-(cyclopropylcarboxamido)-N-methoxy-4-((4-methoxy-2-(N-methylmethanesulfonamido)phenyl)amino)nicotinamide]	> 10	> 10
CCONC(=O)c1cnc(Nc2ccn(C)n2)cc1Nc1ccc(N2CCOCC2)cc1N(C)S(C)(=O)=O [Example 137]	> 10	> 10
CONC(=O)c1cnc(NC(=O)C2CC2)cc1Nc1cccc(C#N)c1OC [Example 31, 4-((3-cyano-2-methoxyphenyl)amino)-6-(cyclopropylcarboxamido)-N-methoxy nicotinamide]	> 10	> 10
CONC(=O)c1cnc(Nc2cccc(F)n2)cc1Nc1cccc(-c2cnn(C)c2)c1N(C)S(C)(=O)=O [Example 88, 6-((6-fluoropyridin-2-yl)amino)-N-methoxy-4-((3-(1-methyl-1H-pyrazol-4-yl)-2-(N-methylmethanesulfonamido)phenyl)amino)nicotinamide]	> 10	> 10

Reference: patent US20240101548A1, “HYDROXAMATE COMPOUND, PREPARATION METHOD THEREFOR AND APPLICATION THEREOF” (SHENZHEN CHIPSCREEN BIOSCIENCES CO., LTD., priority 2020, published 2024)
